According to US20180289656A1, “COMPOSITIONS AND METHODS TO TREAT URINARY TRACT INFECTIONS” (Hennepin Life Sciences, LLC, priority 2015, published 2018):

What was measured:
Format in all cases: cell-based
[1] = system: S. aureus; test: bactericidal activity against 54 strains of S. aureus
Excerpt: 5% w/v GML nonaqueous gel is bactericidal for 54 strains of S. aureus, including highly antibiotic resistant organisms and multiple clonal groups. GML is antimicrobial on contact, killing the organisms in only a few minutes. The estimated chance of S. aureus developing resistance to GML is […]; thus resistance is highly unlikely.

[2] = system: S. aureus biofilms; test: biofilm formation by crystal violet staining, absorbance at 595 nm; settings: 10 fold lower GML concentrations than necessary to inhibit bacterial growth
Experimental: (§1) To directly assess the effect of GML on the formation of biofilms, 96 well plastic microtiter plates were inoculated with approximately 10^6/mL of one of three strains of S. aureus (MN8, a methicillin sensitive strain; MNWH, a methicillin resistant strain; or MW2, a methicillin resistant strain), or with non-typable Haemophilus influenzae. Wells were cultured stationary at 37° C. for 24 and 48. As a control, in one set of three wells for each microbe, the wells were agitated 3 times by pipetting up and down. The bactericidal activity of GML was determined by measuring CFU/mL in supernatants. After removal of supernatants, wells were washed three times with PBS to remove unbound cells, and were then treated with crystal violet for 30 minutes. Wells were again washed three times with PBS to remove unbound crystal violet. Finally, wells were treated with ethanol to solubilize biofilm associated crystal violet. Absorbance at 595 nm was determined by an ELISA reader to measure biofilm formation.

[3] = system: S. aureus (MN8, MNWH, MW2); test: bactericidal activity / growth measured as CFU/mL in supernatants of microtiter plate cultures; settings: GML at 500 μg/mL; all three S. aureus strains (MN8, MNWH, MW2); both 24 and 48 hours
Experimental: as §1

Substance: Glycerol monolaurate [GML]
- time to kill the organisms (antimicrobial on contact) [1]: a few minutes
- biofilm formation (crystal violet staining of retained biofilm material) [2]: significantly inhibited
- growth as measured by CFU/mL [3]: completely inhibited
